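1) Cells in 96-well plates. 2) Compound, 48 h, 5 concentrations. 3) Linear interpolation between surrounding doses. 4) Unreached endpoint = highest concentration. GI50 marks 50% less growth. TGI marks complete inhibition of growth.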
Columns and labels:
Test in all cases: growth of human tumour cells (NCI), 48 h
786-0 renal = system: 786-0 renal
A498 renal = system: A498 renal
A549 NSCLC = system: A549 NSCLC
ACHN renal = system: ACHN renal
BT-549 breast = system: BT-549 breast
CAKI-1 renal = system: CAKI-1 renal
CCRF-CEM leukemia = system: CCRF-CEM leukemia
COLO 205 colon = system: COLO 205 colon
DU-145 prostate = system: DU-145 prostate
EKVX NSCLC = system: EKVX NSCLC
HCC-2998 colon = system: HCC-2998 colon
HCT-116 colon = system: HCT-116 colon
HCT-15 colon = system: HCT-15 colon
HL-60(TB) leukemia = system: HL-60(TB) leukemia
HOP-62 NSCLC = system: HOP-62 NSCLC
HOP-92 NSCLC = system: HOP-92 NSCLC
HS 578T breast = system: HS 578T breast
HT29 colon = system: HT29 colon
IGROV1 ovarian = system: IGROV1 ovarian
K-562 leukemia = system: K-562 leukemia
KM12 colon = system: KM12 colon
LOX IMVI melanoma = system: LOX IMVI melanoma
M14 melanoma = system: M14 melanoma
MALME-3M melanoma = system: MALME-3M melanoma
MCF7 breast = system: MCF7 breast
MDA-MB-231 breast = system: MDA-MB-231 breast
MDA-MB-435 = system: MDA-MB-435
MDA-MB-468 breast = system: MDA-MB-468 breast
MOLT-4 leukemia = system: MOLT-4 leukemia
NCI-H226 lung = system: NCI-H226 lung
NCI-H23 lung = system: NCI-H23 lung
NCI-H460 lung = system: NCI-H460 lung
NCI-H522 lung = system: NCI-H522 lung
NCI/ADR-RES ovarian = system: NCI/ADR-RES ovarian
OVCAR-3 ovarian = system: OVCAR-3 ovarian
OVCAR-4 ovarian = system: OVCAR-4 ovarian
OVCAR-5 ovarian = system: OVCAR-5 ovarian
OVCAR-8 ovarian = system: OVCAR-8 ovarian
PC-3 prostate = system: PC-3 prostate
RPMI-8226 leukemia = system: RPMI-8226 leukemia
RXF 393 renal = system: RXF 393 renal
SF-268 CNS = system: SF-268 CNS
SF-295 CNS = system: SF-295 CNS
SF-539 CNS = system: SF-539 CNS
SK-MEL-2 melanoma = system: SK-MEL-2 melanoma
SK-MEL-28 melanoma = system: SK-MEL-28 melanoma
SK-MEL-5 melanoma = system: SK-MEL-5 melanoma
SK-OV-3 ovarian = system: SK-OV-3 ovarian
SN12C renal = system: SN12C renal
SNB-19 CNS = system: SNB-19 CNS
SNB-75 CNS = system: SNB-75 CNS
SR leukemia = system: SR leukemia
SW-620 colon = system: SW-620 colon
T-47D breast = system: T-47D breast
TK-10 renal = system: TK-10 renal
U251 CNS = system: U251 CNS
UACC-257 melanoma = system: UACC-257 melanoma
UACC-62 melanoma = system: UACC-62 melanoma
UO-31 renal = system: UO-31 renal

O=C(c1ccc(Cl)cc1)C1[C@H](c2ccccc2Cl)[C@@H](c2ccccc2)NC12C(=O)Nc1ccc(Br)cc12 (stereo partly drawn)
GI50 (786-0 renal): 16.6 µM
TGI (786-0 renal): 34.4 µM
GI50 (A498 renal): 19.9 µM
TGI (A498 renal): 46.7 µM
GI50 (A549 NSCLC): 17.5 µM
TGI (A549 NSCLC): 42.3 µM
GI50 (ACHN renal): 22.8 µM
TGI (ACHN renal): 69.5 µM
GI50 (BT-549 breast): 14.5 µM
TGI (BT-549 breast): 28 µM
GI50 (CAKI-1 renal): 14.8 µM
TGI (CAKI-1 renal): 33.9 µM
GI50 (CCRF-CEM leukemia): 24.4 µM
TGI (CCRF-CEM leukemia): 68.2 µM
GI50 (COLO 205 colon): 17.4 µM
TGI (COLO 205 colon): 31.6 µM
GI50 (DU-145 prostate): 19.2 µM
TGI (DU-145 prostate): 40.5 µM
GI50 (EKVX NSCLC): 16.6 µM
TGI (EKVX NSCLC): 44 µM
GI50 (HCC-2998 colon): 15.5 µM
TGI (HCC-2998 colon): 31.1 µM
GI50 (HCT-116 colon): 14.4 µM
TGI (HCT-116 colon): 27.6 µM
GI50 (HCT-15 colon): 15.8 µM
TGI (HCT-15 colon): 30.5 µM
GI50 (HL-60(TB) leukemia): 20.8 µM
TGI (HL-60(TB) leukemia): 49.1 µM
GI50 (HOP-62 NSCLC): 15 µM
TGI (HOP-62 NSCLC): 30 µM
GI50 (HOP-92 NSCLC): 15.6 µM
TGI (HOP-92 NSCLC): 31 µM
GI50 (HS 578T breast): 16.9 µM
TGI (HS 578T breast): 42.7 µM
GI50 (HT29 colon): 17.9 µM
TGI (HT29 colon): 37 µM
GI50 (IGROV1 ovarian): 17.1 µM
TGI (IGROV1 ovarian): 41 µM
GI50 (K-562 leukemia): 26.8 µM
TGI (K-562 leukemia): 88.9 µM
GI50 (KM12 colon): 19.7 µM
TGI (KM12 colon): 44.7 µM
GI50 (LOX IMVI melanoma): 15.2 µM
TGI (LOX IMVI melanoma): 28.5 µM
GI50 (M14 melanoma): 15.3 µM
TGI (M14 melanoma): 29.3 µM
GI50 (MALME-3M melanoma): 15.5 µM
TGI (MALME-3M melanoma): 29 µM
GI50 (MCF7 breast): 15.7 µM
TGI (MCF7 breast): 37.3 µM
GI50 (MDA-MB-231 breast): 15.6 µM
TGI (MDA-MB-231 breast): 29.4 µM
GI50 (MDA-MB-435): 15.2 µM
TGI (MDA-MB-435): 29.6 µM
GI50 (MDA-MB-468 breast): 11 µM
TGI (MDA-MB-468 breast): 26.9 µM
GI50 (MOLT-4 leukemia): 21.2 µM
TGI (MOLT-4 leukemia): 61.7 µM
GI50 (NCI-H226 lung): 14.4 µM
TGI (NCI-H226 lung): 29.3 µM
GI50 (NCI-H23 lung): 14.9 µM
TGI (NCI-H23 lung): 31.1 µM
GI50 (NCI-H460 lung): 17.7 µM
TGI (NCI-H460 lung): 35 µM
GI50 (NCI-H522 lung): 14.1 µM
TGI (NCI-H522 lung): 29.9 µM
GI50 (NCI/ADR-RES ovarian): 15.5 µM
TGI (NCI/ADR-RES ovarian): 30.7 µM
GI50 (OVCAR-3 ovarian): 15.6 µM
TGI (OVCAR-3 ovarian): 32.4 µM
GI50 (OVCAR-4 ovarian): 18.3 µM
TGI (OVCAR-4 ovarian): 49.7 µM
GI50 (OVCAR-5 ovarian): 14.9 µM
TGI (OVCAR-5 ovarian): 29.6 µM
GI50 (OVCAR-8 ovarian): 17.7 µM
TGI (OVCAR-8 ovarian): 36.6 µM
GI50 (PC-3 prostate): 15.7 µM
TGI (PC-3 prostate): 37.5 µM
GI50 (RPMI-8226 leukemia): 26 µM
TGI (RPMI-8226 leukemia): 84.5 µM
GI50 (RXF 393 renal): 14.1 µM
TGI (RXF 393 renal): 28.2 µM
GI50 (SF-268 CNS): 16.6 µM
TGI (SF-268 CNS): 38.7 µM
GI50 (SF-295 CNS): 16.5 µM
TGI (SF-295 CNS): 32.4 µM
GI50 (SF-539 CNS): 16.5 µM
TGI (SF-539 CNS): 31.8 µM
GI50 (SK-MEL-2 melanoma): 15.9 µM
TGI (SK-MEL-2 melanoma): 31.6 µM
GI50 (SK-MEL-28 melanoma): 16 µM
TGI (SK-MEL-28 melanoma): 29.7 µM
GI50 (SK-MEL-5 melanoma): 16.1 µM
TGI (SK-MEL-5 melanoma): 29.8 µM
GI50 (SK-OV-3 ovarian): 24.3 µM
TGI (SK-OV-3 ovarian): 70.2 µM
GI50 (SN12C renal): 15 µM
TGI (SN12C renal): 28.2 µM
GI50 (SNB-19 CNS): 24.8 µM
TGI (SNB-19 CNS): 78.3 µM
GI50 (SNB-75 CNS): 10.5 µM
TGI (SNB-75 CNS): 35 µM
GI50 (SR leukemia): 16.5 µM
TGI (SR leukemia): 41.7 µM
GI50 (SW-620 colon): 16.1 µM
TGI (SW-620 colon): 31.4 µM
GI50 (T-47D breast): 15.2 µM
TGI (T-47D breast): 30.3 µM
GI50 (TK-10 renal): 18.3 µM
TGI (TK-10 renal): 50.6 µM
GI50 (U251 CNS): 16.1 µM
TGI (U251 CNS): 29.9 µM
GI50 (UACC-257 melanoma): 17.6 µM
TGI (UACC-257 melanoma): 37.8 µM
GI50 (UACC-62 melanoma): 13.7 µM
TGI (UACC-62 melanoma): 27 µM
GI50 (UO-31 renal): 13.4 µM
TGI (UO-31 renal): 30.6 µM
